# B1: 3G4 Fab′: Monovalent fragment of 3G4 (antibody)
# VH: EVQLQQSGPELEKPGASVKLSCKASGYSFTGYNMNWVKQSHGKSLEWIGHIDPYYGDTSYNQKFRGKATLTVDKSSSTAYMQLKSLTSEDSAVYYCVKGGYYGHWYFDVWGAGTTVTVSSATTTAPSVYPLVP
# light: DIQMTQSPSSLSASLGERVSLTCRASQDIGSSLNWLQQGPDGTIKRLIYATSSLDSGVPKRFSGSRSGSDYSLTISSLESEDFVDYYCLQYVSSPPTFGAGTKLELKRADAAPTVSIFPPSSEQLTSGGASVVCFLNNFYPKDINVKWKIDGSERQNGVLNSWTDQDSKDSTYSMSSTLTLTKDEYERHNSYTCEATHKTSTSPIVKSFNRNEC
# B2: nicked hβ2GPI: hβ2GPI cleaved by plasmin at Lys317/Thr318; non-lipid binding form (protein)
# chain: GRTCPKPDDLPFSTVVPLKTFYEPGEEITYSCKPGYVSRGGMRKFICPLTGLWPINTLKCTPRVCPFAGILENGAVRYTTFEYPNTISFSCNTGFYLNGADSAKCTEEGKWSPELPVCAPIICPPPSIPTFATLRVYKPSAGNNSLYRDTAVFECLPQHAMFGNDTITCTTHGNWTKLPECREVKCPFPSRPDNGFVNYPAKPTLYYKDKATFGCHDGYSLDGPEEIECTKLGNWSAMPSCKASCKLPVKKATVVYQGERVKIQEKFKNGMLHGDKVSFFCKNKEKKCSYTEDAQCIDGTIEVPKCFKEHSSLAFWKTDASDVKPC
# B3: IL-1α: Recombinant murine interleukin-1 alpha (protein, UniProt P01582 115-270, looked up)
# Interleukin-1 alpha: SAPYTYQSDLRYKLMKLVRQKFVMNDSLNQTIYQDVDKHYLSTTWLNDLQQEVKFDMYAYSSGGDDSKYPVTLKISDSQLFVSAQGEDQPVLLKELPETPKLITGSETDLIFFWKSINSKNYFTSAAYPELFIATKEQSRVHLARGLPSMTDFQIS
# B4: 2aG4: Recombinant mouse IgG2a isotype of 3G4; SEQ ID NO:10 and 11 (antibody, listed as Mus musculus)
# heavy: MGWTWIFILILSVTTGVHSEVQLQQSGPELEKPGASVKLSCKASGYSFTGYNMNWVKQSHGKSLEWIGHIDPYYGDTSYNQKFRGKATLTVDKSSSTAYMQLKSLTSEDSAVYYCVKGGYYGHWYFDVWGAGTTVTVSSAKTTAPSVYPLAPVCGDTTGSSVTLGCLVKGYFPEPVTLTWNSGSLSSGVHTFPAVLQSDLYTLSSSVTVTSSTWPSQSITCNVAHPASSTKVDKKEPRGPTIKPCPPCKCPAPNLLGGPSVFIFPPKIKDVLMISLSPIVTCVVVDVSEDDPDVQISWFVNNVEVHTAQTQTHREDYNSTLRVVSALPIQHQDWMSGKEFKCKVNNKDLPAPIERTISKPKGSVRAPQVYVLPPPEEEMTKKQVTLTCMVTDFMPEDIYVEWTNNGKTELNYKNTEPVLDSDGSYFMYSKLRVEKKNWVERNSYSCSVVHEGLHNHHTTKSFSRTPGK
# light: MDMRAPAQILGFLLLLFPGTRCDIQMTQSPSSLSASLGERVSLTCRASQDIGSSLNWLQQGPDGTIKRLIYATSSLDSGVPKRFSGSRSGSDYSLTISSLESEDFVDYYCLQYVSSPPTFGAGTKLELKRADAAPTVSIFPPSSEQLTSGGASVVCFLNNFYPKDINVKWKIDGSERQNGVLNSWTDQDSKDSTYSMSSTLTLTKDEYERHNSYTCEATHKTSTSPIVKSFNRNEC
# B5: IL-1β: Recombinant murine interleukin-1 beta (protein, UniProt P10749 118-269, looked up)
# Interleukin-1 beta: VPIRQLHYRLRDEQQKSLVLSDPYELKALHLNGQNINQQVIFSMSFVQGEPSNDKIPVALGLKGKNLYLSCVMKDGTPTLQLESVDPKQYPKKKMEKRFVFNKIEVKSKVEFESAEFPNWYISTSQAEHKPVFLGNNSGQDIIDFTMESVSS
# Columns and labels:
# [1] = system: drug-resistant breast tumors; assay: 3G4 and cisplatin against drug-resistant breast tumors; format: in vivo, mouse; details: treated after day 20
# Excerpt: Mice were inoculated with drug-resistant breast tumors and treated after day 20.
# bEnd.3 cells = assay: Induction of PS exposure, 125I-annexin V binding; format: cell-based, mouse
# Method: (§1) All reagents were diluted in medium containing 10% serum and incubated with the cells at 37° C. for 24 h.
# (§2) To study the effect of hypoxia, cells were seeded on 24 well plates and were incubated in a humidified normoxic atmosphere (21% O2, 5% CO2) for 48 h before being transferred to a humidified hypoxic atmosphere (1% O2, 5% CO2, 94% N2) in a sealed chamber (Billups Rothenberg Inc., Del Mar, Ca). Cells were incubated in a hypoxic chamber for 24 h at 37° C. and were then returned to a normoxic environment for 4 h at 37° C. The cells were compared to a parallel culture from an identical passage, seeded on the same day and maintained entirely under normoxic conditions. In some studies, IL-1α (10 ng/ml) and TNFα (20 ng/ml) were added to the medium before transfer to the hypoxic chamber.
# (§3) After treatment with the reagents described above, treated and control cells were incubated with 7.1 pmoles of ^125I-labeled annexin V (200 μl/well) in the binding buffer. After 2 h incubation at room temperature, cells were washed extensively and dissolved in 0.5 M of NaOH. The entire volume of 0.5 ml was transferred to plastic tubes and counted in a gamma counter. Non-specific binding was determined in the presence of 5 mM EDTA and was subtracted from experimental values. The results were expressed as net pmoles of cell-bound annexin V, normalized per 1×10^6 cells.
# (§4) Maximal binding of annexin V was determined on cells simultaneously treated with actinomycin D and TNFα (50 ng/ml of each component). As has been previously reported, these agents cause apoptosis and PS exposure in 90-100% of endothelial cells (Lucas et al., 1998). Basal binding of ^125I-annexin V to untreated cells was determined in the presence of medium with 10% serum. The amount of ^125I-annexin V that bound to the untreated cultures was subtracted from that in the treated cultures. Exposure of PS was calculated according to the following formula: cell-bound annexin V (pmoles) under experimental conditions divided by maximal annexin V binding (pmoles), multiplied by 100. Each study was performed in duplicate and was performed at least three times. Mean values were calculated. The SE of the mean values from three separate experiments was less than 5%.
# ABAE cells = assay: Induction of PS exposure, 125I-annexin V binding; format: cell-based, bovine
# Method: as §1, §2, §3, §4
# [2] = system: ABAE cells with exposed PS; assay: Live-cell binding assay on LPC-treated endothelial cells; format: cell-based, bovine
# Method: Adult bovine aortic endothelial (ABAE) cells were maintained in DMEM supplemented with 10% FBS and 2 mM L-glutamine. ABAE cells were removed from subconfluent cultures by brief exposure to 0.25% trypsin/0.02% EDTA, and 8-well chamber slides were seeded with 2×10^4 cells/well. Following overnight culture, cells were washed gently with PBS and treated with 200 μM lysophosphatidylcholine (LPC) to induce PS exposure.
# PS exposure was determined by immunofluorescence staining. Cells were washed thoroughly in PBS, fixed in 4% paraformaldehyde (w/v), and incubated with a biotin-conjugated anti-mouse secondary antibody. Next, cells were incubated with FITC-conjugated streptavidin (Jackson Immunoresearch) to detect antibody binding. Cells were then permeablized with 0.1% Triton-X100 in PBS and counterstained with Texas Red-conjugated phalloidin (Molecular Probes, Eugene, Oreg.), and 4′, 6-diamidino-2-phenylindole (DAPI; Molecular Probes). Images were captured using a Coolsnap digital camera (Photometrics, Tucson, Ariz.) mounted on a Nikon microscope and processed with MetaVue software (Universal Imaging Corporation, Downingtown, Pa.).
# The area of antibody binding was determined using MetaVue image analysis software, which is able to quantify the number of illuminated pixels in an image. Images of FITC fluorescence were used to quantify antibody binding. Corresponding images of DAPI fluorescence were used to normalize the FITC images for the number of cells present in the field. A small FITC/DAPI ratio indicates a small antibody binding area, whereas a large FITC/DAPI ratio indicates a large binding area. The FITC/DAPI ratios were used to determine increases or decreases in antibody binding area relative to a basal amount of antibody binding under the selected conditions. Five images at 200× magnification were used for each analysis. Data are presented as average relative FITC/DAPI ratios with error bars representing the standard deviation.
# Cells were then washed, fixed, and stained with fluorescent markers to visualize binding of antibody to the cell surface.
# [3] = Phospholipid specificity ELISA; format: binding
# Method: The specificity of the antibodies was determined by ELISA using plates coated with the following phospholipids: PS, phosphatidylserine; PE, phosphatidylethanolamine; PI, phosphatidylinositol; PA, phosphatidic acid; PG, phosphatidylglycerol; PC, phosphatidylcholine; CL, cardiolipin; and SM, sphingomyelin.
# [4] = Serum dependence of binding to PS
# Method: The serum dependence or independence of the antibodies is also set forth in Table 2 (see also, Example XXX).
# The 1B9, 2G7 and 7C5 antibodies behave essentially the same. These antibodies recognize only PS and require serum or serum proteins for binding to PS. The binding of 1B9, 2G7 and 7C5 to various phospholipids in the present example was assayed only in the presence of 10% bovine serum, whereas binding of the other antibodies was tested either in the absence or in the presence of serum.
# WiDr (colon carcinoma) = assay: WiDr colon carcinoma model; format: in vivo, mouse; details: 100 μg 3×/week from day 5; preliminary study
# Method: Treatment was started on day 5, when the tumors were small (10 mice per group). 100 μg of each antibody was injected 3×/week and tumor growth monitored.
# [5] = Binding of ch3G4 and 2aG4 to phospholipid-coated ELISA plates; details: vs 3G4
# [6] = Hypoxia (1% O2) + TNFα 20 ng/ml
# [7] = Hypoxia (1% O2) + IL-1α 10 ng/ml
molecule,measurement,setting,value
"N.N.[Cl][Pt][Cl] [cisplatin, reference compound]",anti-tumor response,[1],tumor growth was slowed
FGF-2: human fibroblast growth factor-2,125I-Annexin V (% of Max binding),"bEnd.3 cells; 20 ng/ml, 24 h",0 % of Max binding
same,125I-Annexin V (% of Max binding),"ABAE cells; 20 ng/ml, 24 h",0 % of Max binding
GM-CSF: cytokine tested on endothelial cells,binding of 125I-annexin V above the basal level for untreated cells,ABAE cells; ABAE and bEnd.3 cells,did not increase binding
IL-6: interleukin-6,125I-Annexin V (% of Max binding),"bEnd.3 cells; 20 ng/ml, 24 h",0 % of Max binding
same,125I-Annexin V (% of Max binding),"ABAE cells; 20 ng/ml, 24 h",0 % of Max binding
IL-8: interleukin-8,125I-Annexin V (% of Max binding),"bEnd.3 cells; 20 ng/ml, 24 h",0 % of Max binding
same,125I-Annexin V (% of Max binding),"ABAE cells; 20 ng/ml, 24 h",0 % of Max binding
IL-10: interleukin-10,125I-Annexin V (% of Max binding),"bEnd.3 cells; 20 ng/ml, 24 h",0 % of Max binding
same,125I-Annexin V (% of Max binding),"ABAE cells; 20 ng/ml, 24 h",0 % of Max binding
Scatter factor: Recombinant hepatocyte growth factor (HGF or scatter factor),125I-Annexin V (% of Max binding),"bEnd.3 cells; 40 ng/ml, 24 h",0 % of Max binding
same,125I-Annexin V (% of Max binding),"ABAE cells; 40 ng/ml, 24 h",0 % of Max binding
TGF β1: growth factor tested on endothelial cells,125I-Annexin V (% of Max binding),"bEnd.3 cells; 20 ng/ml, 24 h",0 % of Max binding
same,125I-Annexin V (% of Max binding),"ABAE cells; 20 ng/ml, 24 h",0 % of Max binding
TNFα,125I-Annexin V (% of Max binding),"bEnd.3 cells; 20 ng/ml, 24 h",13.7 % of Max binding
same,125I-Annexin V (% of Max binding),bEnd.3 cells; [6],36.0 % of Max binding
same,125I-Annexin V (% of Max binding),"ABAE cells; 20 ng/ml, 24 h",7.4 % of Max binding
same,125I-Annexin V (% of Max binding),ABAE cells; [6],33.0 % of Max binding
Thrombin,125I-Annexin V (% of Max binding),"bEnd.3 cells; 50 nM, 24 h",17.4 % of Max binding
same,125I-Annexin V (% of Max binding),"ABAE cells; 50 nM, 24 h",8.8 % of Max binding
VEGF,125I-Annexin V (% of Max binding),"bEnd.3 cells; 20 ng/ml, 24 h",0 % of Max binding
same,125I-Annexin V (% of Max binding),"ABAE cells; 20 ng/ml, 24 h",0 % of Max binding
B1,inhibition of ch3G4/β2GPI binding,"[2]; 20 nM ch3G4, 40 nM hβ2GPI",inhibited ch3G4/β2GPI binding to LPC-treated ABAE cells in a concentration-dependent manner
same,binding to LPC-treated ABAE cells,"[2]; 20 nM, DMEM+10% FBS",negligible
same,binding to ABAE cells,"[2]; 2 μM, 40 nM hβ2GPI",No binding
B2,mediation of ch3G4 binding to ABAE cells with exposed PS,"[2]; 2 μg/ml, LPC",not able to mediate binding
B3,125I-Annexin V (% of Max binding),"bEnd.3 cells; 10 ng/ml, 24 h",7.5 % of Max binding
same,125I-Annexin V (% of Max binding),bEnd.3 cells; [7],31.0 % of Max binding
same,125I-Annexin V (% of Max binding),"ABAE cells; 10 ng/ml, 24 h",6.4 % of Max binding
same,125I-Annexin V (% of Max binding),ABAE cells; [7],26.0 % of Max binding
B4,Relative Strength of Reactivity on ELISA,[3],PS = PA = PI = PG = CL >> PE
same,Serum cofactor?,[4],Yes
same,tumor growth,WiDr (colon carcinoma),slowed tumor growth to essentially the same degree
same,affinity and specificity in PS-ELISA,[5],essentially the same as for 3G4
B5,125I-Annexin V (% of Max binding),"bEnd.3 cells; 10 ng/ml, 24 h",5.5 % of Max binding
same,125I-Annexin V (% of Max binding),"ABAE cells; 10 ng/ml, 24 h",5.8 % of Max binding

# — patent US20160311886A1, “Constructs Binding to Phosphatidylserine and Their Use in Disease Treatment and Imaging” (Board of Regents, The University of Texas System, priority 2005, published 2016)
